In the test the target is T1, human PTH1 receptor (Homo sapiens, UniProt Q03431).
T1 sequence (Q03431 27-593): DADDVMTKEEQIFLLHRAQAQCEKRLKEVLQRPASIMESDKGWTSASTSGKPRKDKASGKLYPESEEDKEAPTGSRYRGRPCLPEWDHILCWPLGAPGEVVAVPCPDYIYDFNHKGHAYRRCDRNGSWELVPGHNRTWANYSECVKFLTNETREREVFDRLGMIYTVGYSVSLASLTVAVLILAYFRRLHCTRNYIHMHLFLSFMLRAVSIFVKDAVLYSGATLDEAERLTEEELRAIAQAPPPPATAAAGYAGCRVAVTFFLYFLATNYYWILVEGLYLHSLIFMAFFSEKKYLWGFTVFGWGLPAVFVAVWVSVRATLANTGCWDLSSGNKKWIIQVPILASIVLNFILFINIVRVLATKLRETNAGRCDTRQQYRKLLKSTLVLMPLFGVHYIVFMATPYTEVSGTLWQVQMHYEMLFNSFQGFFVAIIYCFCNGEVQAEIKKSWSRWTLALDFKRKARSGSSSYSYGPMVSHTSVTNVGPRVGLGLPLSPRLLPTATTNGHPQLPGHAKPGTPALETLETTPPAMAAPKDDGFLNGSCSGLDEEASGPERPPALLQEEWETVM
Put plainly: In vitro cAMP signal activity in HKRK-B7 cells (LLC-PK1 cells overexpressing the human PTH1 receptor). Format: cell-based. The settings on record: HKRK-B7 cells; compound at 1×10^−3 M; cAMP produced as percentage of that produced by hPTH(1-34) at 100 nM.
With `CC(=O)N(C)c1ccc(C)c(/C=C/S(=O)(=O)N2CCC3(CC2)N=C(c2cccc(OC(F)(F)F)c2)NC3=O)c1` [Compound 225, N-methyl-N-(4-methyl-3-{(E)-2-[4-oxo-2-(3-trifluoromethoxy-phenyl)-1,3,8-triaza-spiro[4.5]dec-1-ene-8-sulfonyl]-vinyl}-phenyl)-acetamide], the “cAMP production activity (%)” value is recorded as 47%.

For `Cc1c(O)cccc1/C=C/S(=O)(=O)N1CCC2(CC1)N=C(c1cccc(OC(F)(F)F)c1)NC2=O` [Compound 226, 8-[(E)-2-(3-Hydroxy-2-methyl-phenyl)-ethenesulfonyl]-2-(3-trifluoromethoxy-phenyl)-1,3,8-triaza-spiro[4.5]dec-1-en-4-one], the “cAMP production activity (%)” value was found to be 83%. In the case of `Cc1ccc(O)cc1/C=C/S(=O)(=O)N1CCC2(CC1)N=C(c1cccc(OC(F)(F)F)c1)NC2=O` [Compound 227, 8-[(E)-2-(5-hydroxy-2-methyl-phenyl)-ethenesulfonyl]-2-(3-trifluoromethoxy-phenyl)-1,3,8-triaza-spiro[4.5]dec-1-en-4-one] it was 87%; in that of `Cc1cc(NS(C)(=O)=O)cc(C)c1/C=C/S(=O)(=O)N1CCC2(CC1)N=C(c1cccc(OC(F)(F)F)c1)NC2=O` [Compound 229, N-(3,5-dimethyl-4-{(E)-2-[4-oxo-2-(3-trifluoromethoxy-phenyl)-1,3,8-triaza-spiro[4.5]dec-1-ene-8-sulfonyl]-vinyl}-phenyl)-methanesulfonamide], 68%. The value for `Cc1cc(C(=O)N2CCC(O)CC2)ccc1/C=C/S(=O)(=O)N1CCC2(CC1)N=C(c1cccc(OC(F)(F)F)c1)NC2=O` [Compound 230, 8-{(E)-2-[4-(4-hydroxy-piperidine-1-carbonyl)-2-methyl-phenyl]-ethenesulfonyl}-2-(3-trifluoromethoxy-phenyl)-1,3,8-triaza-spiro[4.5]dec-1-en-4-one] was 66%; that for `Cc1cc(C(=O)N(C)C)ccc1/C=C/S(=O)(=O)N1CCC2(CC1)N=C(c1cccc(OC(F)(F)F)c1)NC2=O` [Compound 231, 3,N,N-trimethyl-4-{(E)-2-[4-oxo-2-(3-trifluoromethoxy-phenyl)-1,3,8-triaza-spiro[4.5]dec-1-ene-8-sulfonyl]-vinyl}-benzamide] was 96%; that for `CC(=O)N(CCO)c1ccc(/C=C/S(=O)(=O)N2CCC3(CC2)N=C(c2cccc(OC(F)(F)F)c2)NC3=O)c(C)c1` [Compound 232, N-(2-hydroxy-ethyl)-N-(3-methyl-4-{(E)-2-[4-oxo-2-(3-trifluoromethoxy-phenyl)-1,3,8-triaza-spiro[4.5]dec-1-ene-8-sulfonyl]-vinyl}-phenyl)-acetamide] was 69%. In the case of `CN(C)C(=O)c1ccc(/C=C/S(=O)(=O)N2CCC3(CC2)N=C(c2cccc(OC(F)(F)F)c2)NC3=O)c(F)c1` [Compound 233, 3-fluoro-N,N-dimethyl-4-{(E)-2-[4-oxo-2-(3-trifluoromethoxy-phenyl)-1,3,8-triaza-spiro[4.5]dec-1-ene-8-sulfonyl]-vinyl}-benzamide] it was 13%. On to `O=C1NC(c2cccc(OC(F)(F)F)c2)=NC12CCN(S(=O)(=O)/C=C/c1cc(Cl)c(OCCC(O)CO)cc1Cl)CC2` (centres unmarked) [Compound 234, 8-{(E)-2-[2,5-dichloro-4-(3,4-dihydroxy-butoxy)-phenyl]-ethenesulfonyl}-2-(3-trifluoromethoxy-phenyl)-1,3,8-triaza-spiro[4.5]dec-1-en-4-one], for which the “cAMP production activity (%)” value is 78%. As to `Cc1cc(OCCCN(C)C)ccc1/C=C/S(=O)(=O)N1CCC2(CC1)N=C(c1cccc(OC(F)(F)F)c1)NC2=O` [Compound 235, 8-{(E)-2-[4-(3-dimethylamino-propoxy)-2-methyl-phenyl]-ethenesulfonyl}-2-(3-trifluoromethoxy-phenyl)-1,3,8-triaza-spiro[4.5]dec-1-en-4-one], the “cAMP production activity (%)” value is given as 49%.

For the molecule `CC(=O)N(C)c1cccc(/C=C/S(=O)(=O)N2CCC3(CC2)N=C(c2cccc(OC(F)(F)F)c2)NC3=O)c1C` [Compound 236, N-methyl-N-(2-methyl-3-{(E)-2-[4-oxo-2-(3-trifluoromethoxy-phenyl)-1,3,8-triaza-spiro[4.5]dec-1-ene-8-sulfonyl]-vinyl}-phenyl)-acetamide], the “cAMP production activity (%)” value is 40%.

For the molecule `CC(=O)N(C)c1ccc(/C=C/S(=O)(=O)N2CCC3(CC2)N=C(c2cccc(OC(F)(F)F)c2)NC3=O)c(C)c1` [Compound 237, N-methyl-N-(3-methyl-4-{(E)-2-[4-oxo-2-(3-trifluoromethoxy-phenyl)-1,3,8-triaza-spiro[4.5]dec-1-ene-8-sulfonyl]-vinyl}-phenyl)-acetamide], the “cAMP production activity (%)” value was determined as 74%. With `CC(=O)Nc1cc(C)c(/C=C/S(=O)(=O)N2CCC3(CC2)N=C(c2cccc(OC(F)(F)F)c2)NC3=O)c(C)c1` [Compound 238, N-(3,5-dimethyl-4-{(E)-2-[4-oxo-2-(3-trifluoromethoxy-phenyl)-1,3,8-triaza-spiro[4.5]dec-1-ene-8-sulfonyl]-vinyl}-phenyl)-acetamide], the “cAMP production activity (%)” value is 90%.

As for `CC(=O)N(C)c1cc(C)c(/C=C/S(=O)(=O)N2CCC3(CC2)N=C(c2cccc(OC(F)(F)F)c2)NC3=O)c(C)c1` [Compound 239, N-(3,5-dimethyl-4-{(E)-2-[4-oxo-2-(3-trifluoromethoxy-phenyl)-1,3,8-triaza-spiro[4.5]dec-1-ene-8-sulfonyl]-vinyl}-phenyl)-N-methyl-acetamide], the “cAMP production activity (%)” value is 80%.

As for `O=C1NC(C2CCCCCC2)=NC12CCN(S(=O)(=O)/C=C/c1cccc3c1ccn3C[C@H](O)CO)CC2` [Compound 240, 2-Cycloheptyl-8-{(E)-2-[1-((S)-2,3-dihydroxy-propyl)-1H-indol-4-yl]-ethenesulfonyl}-1,3,8-triaza-spiro[4.5]dec-1-en-4-one], the “cAMP production activity (%)” value was 49%. Regarding `O=C1NC(C2CCC(F)(F)CC2)=NC12CCN(S(=O)(=O)/C=C/c1cccc3c1ccn3C[C@H](O)CO)CC2` [Compound 241, 2-(4,4-difluoro-cyclohexyl)-8-{(E)-2-[1-((S)-2,3-dihydroxy-propyl)-1H-indol-4-yl]-ethenesulfonyl}-1,3,8-triaza-spiro[4.5]dec-1-en-4-one], the “cAMP production activity (%)” value was 44%. The value for `Cc1cc(OC[C@H](O)CO)cc(C)c1/C=C/S(=O)(=O)N1CCC2(CC1)N=C(c1ccc(F)c(C(F)(F)F)c1)NC2=O` [Compound 242, 8-{(E)-2-[4-((R)-2,3-Dihydroxy-propoxy)-2,6-dimethyl-phenyl]-ethenesulfonyl}-2-(4-fluoro-3-trifluoromethyl-phenyl)-1,3,8-triaza-spiro[4.5]dec-1-en-4-one] was 75%. As to `Cc1cc(OC[C@H](O)CO)cc(C)c1/C=C/S(=O)(=O)N1CCC2(CC1)N=C(c1cccc(C(F)(F)F)c1F)NC2=O` [Compound 243, 8-{(E)-2-[4-((R)-2,3-dihydroxy-propoxy)-2,6-dimethyl-phenyl]-ethenesulfonyl}-2-(2-fluoro-3-trifluoromethyl-phenyl)-1,3,8-triaza-spiro[4.5]dec-1-en-4-one], the “cAMP production activity (%)” value is given as 80%. The value for `Cc1cc(C(=O)N2CCC(O)CC2)cc(C)c1/C=C/S(=O)(=O)N1CCC2(CC1)N=C(c1cccc(C(F)(F)F)c1F)NC2=O` [Compound 244, 2-(2-fluoro-3-trifluoromethyl-phenyl)-8-{(E)-2-[4-(4-hydroxy-piperidine-1-carbonyl)-2,6-dimethyl-phenyl]-ethenesulfonyl}-1,3,8-triaza-spiro[4.5]dec-1-en-4-one] was 83%; that for `CC1(C)OC[C@H](Cn2ccc3c(/C=C/S(=O)(=O)N4CCC5(CC4)N=C(C4CCC(C(F)(F)F)CC4)NC5=O)cccc32)O1` (stereo partly drawn) [Compound 245, 8-{(E)-2-[1-((S)-2,2-dimethyl-[1,3]dioxolan-4-ylmethyl)-1H-indol-4-yl]-ethenesulfonyl}-2-(4-trifluoromethyl-cyclohexyl)-1,3,8-triaza-spiro[4.5]dec-1-en-4-one] was 34%; that for `CC1(C)OCC(Cn2ccc3c(/C=C/S(=O)(=O)N4CCC5(CC4)N=C(C4CCOCC4)NC5=O)cccc32)O1` (centres unmarked) [Compound 246, 8-{(E)-2-[1-(2,2-dimethyl-[1,3]dioxolan-4-ylmethyl)-1H-indol-4-yl]-ethenesulfonyl}-2-(tetrahydro-pyran-4-yl)-1,3,8-triaza-spiro[4.5]dec-1-en-4-one] was 39%. For `Cc1cc(OCCC(O)CO)ccc1/C=C/S(=O)(=O)N1CCC2(CC1)N=C(c1cccc(C(F)(F)F)c1F)NC2=O` (centres unmarked) [Compound 247, 8-{(E)-2-[4-(3,4-Dihydroxy-butoxy)-2-methyl-phenyl]-ethenesulfonyl}-2-(2-fluoro-3-trifluoromethyl-phenyl)-1,3,8-triaza-spiro[4.5]dec-1-en-4-one], the “cAMP production activity (%)” value worked out at 81%. The value for `Cc1cc(C(=O)N2CCCC2)ccc1/C=C/S(=O)(=O)N1CCC2(CC1)N=C(c1cccc(C(F)(F)F)c1F)NC2=O` [Compound 248, 2-(2-fluoro-3-trifluoromethyl-phenyl)-8-{(E)-2-[2-methyl-4-(pyrrolidine-1-carbonyl)-phenyl]-ethenesulfonyl}-1,3,8-triaza-spiro[4.5]dec-1-en-4-one] was 66%.
